# Legend:
# ChiB = biological target: T1, ChiB (Clostridium perfringens, UniProt F8UNI4)
# T1 construct: gene CP4_3454
# [1] = biological target: T2, ChiA (N-terminally trimmed version) (Clostridium perfringens, UniProt F8UNI5)
# T2 construct: gene CP4_3455
# [2] = biological target: T2, ChiA (N-terminally trimmed version); remark: listed apart in the source
# T2 sequence (F8UNI5 46-611 limits assumed): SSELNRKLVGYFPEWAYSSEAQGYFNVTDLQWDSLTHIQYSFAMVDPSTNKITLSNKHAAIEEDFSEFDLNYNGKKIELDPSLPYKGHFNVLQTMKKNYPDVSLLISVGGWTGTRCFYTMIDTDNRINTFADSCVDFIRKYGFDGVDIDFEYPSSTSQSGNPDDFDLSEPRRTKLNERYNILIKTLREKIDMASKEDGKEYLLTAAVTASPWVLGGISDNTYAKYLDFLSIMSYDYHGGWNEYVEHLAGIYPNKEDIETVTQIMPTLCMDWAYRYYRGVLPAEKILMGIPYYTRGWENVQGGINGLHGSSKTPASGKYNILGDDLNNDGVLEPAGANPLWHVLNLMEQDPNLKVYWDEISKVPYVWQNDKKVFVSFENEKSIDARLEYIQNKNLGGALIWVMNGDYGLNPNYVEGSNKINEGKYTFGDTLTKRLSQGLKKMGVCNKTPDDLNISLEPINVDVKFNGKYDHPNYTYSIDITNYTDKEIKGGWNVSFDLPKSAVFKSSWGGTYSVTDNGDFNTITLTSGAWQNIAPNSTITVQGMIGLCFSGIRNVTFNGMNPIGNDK
# T1 sequence (F8UNI4 1-599): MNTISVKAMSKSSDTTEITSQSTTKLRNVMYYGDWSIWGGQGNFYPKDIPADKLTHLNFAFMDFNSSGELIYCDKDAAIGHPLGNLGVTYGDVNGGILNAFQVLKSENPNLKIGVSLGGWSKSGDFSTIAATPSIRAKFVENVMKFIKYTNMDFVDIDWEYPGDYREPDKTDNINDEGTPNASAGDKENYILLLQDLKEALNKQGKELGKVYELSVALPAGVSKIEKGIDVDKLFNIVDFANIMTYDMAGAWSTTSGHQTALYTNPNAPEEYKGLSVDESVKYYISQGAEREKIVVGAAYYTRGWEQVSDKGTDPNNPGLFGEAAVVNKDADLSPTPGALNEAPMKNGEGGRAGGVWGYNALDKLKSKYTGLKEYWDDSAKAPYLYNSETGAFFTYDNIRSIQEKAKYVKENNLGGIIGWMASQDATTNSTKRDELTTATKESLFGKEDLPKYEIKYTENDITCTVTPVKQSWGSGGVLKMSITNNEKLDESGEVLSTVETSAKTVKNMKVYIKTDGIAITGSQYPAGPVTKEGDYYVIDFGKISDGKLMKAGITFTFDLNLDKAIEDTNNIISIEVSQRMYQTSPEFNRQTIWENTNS
Structure (SMILES),"X-ray co-crystal structure, 1.85 Å (ChiB)","X-ray crystal structure by soaking, 1.35 Å [1]","X-ray co-crystal structure, 1.30 Å [2]"
Cn1cnc2c1c(=O)n(CCCn1c(=O)c3c(ncn3C)n(C)c1=O)c(=O)n2C [Bisdionin C],The crystal of ChiB in complex with the chitinase inhibitor Bisdionin C,The crystal of ChiA in complex with the chitinase inhibitor Bisdionin C,
N[C@H]1[C@H](O[C@H]2[C@H](O)[C@@H](N)[C@H](O[C@H]3[C@H](O)[C@@H](N)[C@H](O[C@H]4[C@H](O)[C@@H](N)[C@H](O[C@H]5[C@H](O)[C@@H](N)[C@H](O[C@H]6[C@H](O)[C@@H](N)C(O)O[C@@H]6CO)O[C@@H]5CO)O[C@@H]4CO)O[C@@H]3CO)O[C@@H]2CO)O[C@H](CO)[C@@H](O)[C@@H]1O (stereo partly drawn) [chitosan hexamer],,,The crystal of ChiA in complex with the chitinase inhibitor chitosan
